{
  "source": "patent US20050244335A1",
  "about": "“Methods and compositions related to increasing antitumor activity of chemotherapeutic agents” (priority 2004, published 2005)",
  "assay": "Pharmacokinetics and tissue distribution of carboplatin in CD-1 mice",
  "format": "in vivo",
  "conditions": "carboplatin 60 mg/kg iv",
  "procedure": "Pharmacokinetic studies were carried out using a protocol similar to that previously described (Wang, 1999) using metabolism cages. Male CD-1 mice were pre-treated with DEX (s.c., 0.1 mg/day/mouse for 5 days) or saline (as controls), and, at 1 hr after the fifth dose of DEX, were given a single intravenously (i.v.) bolus administration of carboplatin (60 mg/kg) via a tail vein. At various times (5, 15, and 30 min, 1, 2, 4, 8, and 24 hr after drug dosing; 3 animals for each time point)), blood samples were collected in heparinized tubes and tissue samples removed. Plasma was separated by centrifugation at 20,000 g for 5 min. Tissues including liver, kidneys and spleen were immediately blotted on Whatman No. 1 filter paper, trimmed of extraneous fat or connective tissue, weighed, and homogenized in 0.9% NaCl physiological saline (5 mL per g of wet tissue weight). The resultant homogenates were stored at −70° C. until further analysis. Bone marrow cells were harvested by flushing the femurs with sterile physiological saline as reported previously (Zhang, 1993). The resultant bone marrow cell suspension was weighed and lysed by sonicating 5 times for periods of 10 sec. Following centrifugation at 20,000 g for 30 min, the supernatant was removed and stored at −70° C. until further analysis.\n[…] in biological samples was analyzed by an analytical procedure involving micro-filtration and reversed-phase HPLC (Bullen, 1992). 200 μL of plasma or tissue homogenates or bone marrow suspension was added to the reservoir of a Centrifree™ micropartition system. The latter was capped and centrifuged at 2,000 g for 5 min. All filtrates were transferred into a new micro centrifuge tube and 6 μL of the filtrates was injected onto the HPLC column. The HPLC system consisted of a Hewlett Packard 1050 ChemStation with a UV detector (Agilent 1050 series). Determination of Carboplatin was achieved using a LiChrosorb™ diol (10 μm, 250×4.6 mm) analytical column with a LiChroCART 100 RP-18 guard column. The mobile phase for plasma was composed of 98:2 acetonitrile: H2O (vol/vol) and 89:11 acetonitrile: 0.015% H3PO4 (vol/vol) for urine and tissue samples. The flow rates were 2 mL/min (for plasma) and 1.1 mL/min (for urine and tissue samples). The column elute was monitored by UV at 229 nm. Quantitation of plasma or tissue carboplatin was carried out by using an external standard curve (0-4,000.0 μg/mL) that was freshly prepared daily. Linear regression and correlation analysis were carried out to establish the standard peak-area/concentration curves for carboplatin.\nThe significance of the differences among treated groups and controls were analyzed by ANOVA.",
  "data": [
    {"smiles": "N.N.O=C([O-])C1(C(=O)[O-])CCC1.[Pt+2]", "note": "[carboplatin]", "values": [
      {"measurement": "AUC of carboplatin in spleen, DEX pretreated relative to control mice", "value": "approximately 16.5%"},
      {"measurement": "carboplatin AUC decrease in bone marrow, DEX pretreated vs control mice", "value": 57.4, "unit": "%"},
      {"measurement": "decrease of carboplatin uptake in liver by DEX pretreatment", "value": 40, "unit": "%"},
      {"measurement": "AUC", "setting": "bone marrow, DEX (+)", "value": 517160, "unit": "ng·h/mL"},
      {"measurement": "CL", "setting": "bone marrow, DEX (+)", "value": 0.12, "unit": "mL/g/h"},
      {"measurement": "Cmax", "setting": "bone marrow, DEX (+)", "value": 20610, "unit": "ng/mL"},
      {"measurement": "T1/2", "setting": "bone marrow, DEX (+)", "value": 922.8, "unit": "min"},
      {"measurement": "Vss", "setting": "bone marrow, DEX (+)", "value": 2.57, "unit": "mL/g"},
      {"measurement": "AUC", "setting": "bone marrow, DEX (−)", "value": 901600, "unit": "ng·h/mL"},
      {"measurement": "CL", "setting": "bone marrow, DEX (−)", "value": 0.07, "unit": "mL/g/h"},
      {"measurement": "Cmax", "setting": "bone marrow, DEX (−)", "value": 20140, "unit": "ng/mL"},
      {"measurement": "T1/2", "setting": "bone marrow, DEX (−)", "value": 1708, "unit": "min"},
      {"measurement": "Vss", "setting": "bone marrow, DEX (−)", "value": 2.75, "unit": "mL/g"},
      {"measurement": "AUC", "setting": "liver, DEX (+)", "value": 25020, "unit": "ng·h/mL"},
      {"measurement": "CL", "setting": "liver, DEX (+)", "value": 2.40, "unit": "mL/g/h"},
      {"measurement": "Cmax", "setting": "liver, DEX (+)", "value": 16550, "unit": "ng/mL"},
      {"measurement": "T1/2", "setting": "liver, DEX (+)", "value": 23.4, "unit": "min"},
      {"measurement": "Vss", "setting": "liver, DEX (+)", "value": 1.35, "unit": "mL/g"},
      {"measurement": "AUC", "setting": "liver, DEX (−)", "value": 38710, "unit": "ng·h/mL"},
      {"measurement": "CL", "setting": "liver, DEX (−)", "value": 1.55, "unit": "mL/g/h"},
      {"measurement": "Cmax", "setting": "liver, DEX (−)", "value": 25440, "unit": "ng/mL"},
      {"measurement": "T1/2", "setting": "liver, DEX (−)", "value": 23.4, "unit": "min"},
      {"measurement": "Vss", "setting": "liver, DEX (−)", "value": 0.87, "unit": "mL/g"},
      {"measurement": "AUC", "setting": "plasma, DEX (+)", "value": 42690, "unit": "ng·h/mL"},
      {"measurement": "CL", "setting": "plasma, DEX (+)", "value": 1.41, "unit": "mL/g/h"},
      {"measurement": "Cmax", "setting": "plasma, DEX (+)", "value": 227580, "unit": "ng/mL"},
      {"measurement": "T1/2", "setting": "plasma, DEX (+)", "value": 7.8, "unit": "min"},
      {"measurement": "Vss", "setting": "plasma, DEX (+)", "value": 0.26, "unit": "mL/g"},
      {"measurement": "AUC", "setting": "plasma, DEX (−)", "value": 44180, "unit": "ng·h/mL"},
      {"measurement": "CL", "setting": "plasma, DEX (−)", "value": 1.36, "unit": "mL/g/h"},
      {"measurement": "Cmax", "setting": "plasma, DEX (−)", "value": 352620, "unit": "ng/mL"},
      {"measurement": "T1/2", "setting": "plasma, DEX (−)", "value": 5.4, "unit": "min"},
      {"measurement": "Vss", "setting": "plasma, DEX (−)", "value": 0.17, "unit": "mL/g"},
      {"measurement": "AUC", "setting": "spleen, DEX (+)", "value": 56720, "unit": "ng·h/mL"},
      {"measurement": "CL", "setting": "spleen, DEX (+)", "value": 1.06, "unit": "mL/g/h"},
      {"measurement": "Cmax", "setting": "spleen, DEX (+)", "value": 17790, "unit": "ng/mL"},
      {"measurement": "T1/2", "setting": "spleen, DEX (+)", "value": 49.2, "unit": "min"},
      {"measurement": "Vss", "setting": "spleen, DEX (+)", "value": 1.25, "unit": "mL/g"},
      {"measurement": "AUC", "setting": "spleen, DEX (−)", "value": 344110, "unit": "ng·h/mL"},
      {"measurement": "CL", "setting": "spleen, DEX (−)", "value": 0.17, "unit": "mL/g/h"},
      {"measurement": "Cmax", "setting": "spleen, DEX (−)", "value": 118730, "unit": "ng/mL"},
      {"measurement": "T1/2", "setting": "spleen, DEX (−)", "value": 45, "unit": "min"},
      {"measurement": "Vss", "setting": "spleen, DEX (−)", "value": 0.19, "unit": "mL/g"}
    ]}
  ]
}
